PubChem BioAssay (NCI)
Values joined by “and” are separate entries in the source; they are usually repeats but may differ in a detail not shown here. Equal entries are not always repeated.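 Five compound concentrations were applied to cells in 96-well plates for 48 hours; endpoints were derived by simple linear interpolation of the resulting dose-response curve. The concentration for 50% growth inhibition is given as GI50. TGI marks complete inhibition of growth.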

Experiments:
Assay in all cases: growth of human tumour cells (NCI), 48 h
TK-10 renal = system: TK-10 renal
HL-60(TB) leukemia = system: HL-60(TB) leukemia
786-0 renal = system: 786-0 renal
LOX IMVI melanoma = system: LOX IMVI melanoma
CCRF-CEM leukemia = system: CCRF-CEM leukemia
HCT-116 colon = system: HCT-116 colon
MALME-3M melanoma = system: MALME-3M melanoma
NCI-H23 lung = system: NCI-H23 lung
SK-MEL-28 melanoma = system: SK-MEL-28 melanoma
MCF7 breast = system: MCF7 breast

| Structure (SMILES) | TGI (TK-10 renal) | TGI (HL-60(TB) leukemia) | TGI (786-0 renal) | TGI (LOX IMVI melanoma) | TGI (CCRF-CEM leukemia) | TGI (HCT-116 colon) [µM] | TGI (MALME-3M melanoma) | TGI (NCI-H23 lung) [µM] | TGI (SK-MEL-28 melanoma) | GI50 (HL-60(TB) leukemia) [µM] | GI50 (786-0 renal) [µM] | GI50 (LOX IMVI melanoma) [µM] | GI50 (CCRF-CEM leukemia) [µM] | GI50 (HCT-116 colon) [µM] | GI50 (MALME-3M melanoma) [µM] | GI50 (MCF7 breast) [µM] | TGI (MCF7 breast) [µM] | GI50 (NCI-H23 lung) [µM] | GI50 (SK-MEL-28 melanoma) [µM] | GI50 (TK-10 renal) [µM] |
| --- | --- | --- | --- | --- | --- | --- | --- | --- | --- | --- | --- | --- | --- | --- | --- | --- | --- | --- | --- | --- |
| COC(=O)[C@@]1(O)CC(C)C=C1C=O (some centres not stated) | > 100 µM | 51.6 µM | > 100 µM | > 100 µM | > 100 µM | 38.4 | > 100 µM | > 100 | > 100 µM |  |  |  |  |  |  |  |  |  |  |  |
| O=C(O)C1C(=O)Oc2c(cccc2[N+](=O)[O-])C1O (configuration not stated) | > 100 µM | > 100 µM | > 100 µM | > 100 µM | > 100 µM | > 100 | > 100 µM | > 100 | > 100 µM |  |  |  |  |  |  |  |  |  |  |  |
| CCCCCCCCC(O)C#CC(N)=O (configuration not stated) | 30.8 µM | 40.3 µM | 25.3 µM | 24 µM | 72.5 µM | 16.6 | 31.8 µM | 35.6 | 31.8 µM |  |  |  |  |  |  |  |  |  |  |  |
| COC1=C2C[C@H](O)C(C)C[C@@]2(OC)OC1=O (some centres not stated) |  | > 100 µM | > 100 µM | > 100 µM | > 100 µM | > 100 | > 100 µM | > 100 | > 100 µM |  |  |  |  |  |  |  |  |  |  |  |
| CCO/C=C1\N=C(C(Cl)c2ccccc2)OC1=O (configuration not stated) | > 100 µM | > 100 µM | > 100 µM | > 100 µM | > 100 µM |  | > 100 µM | > 100 | > 100 µM |  |  |  |  |  |  |  |  |  |  |  |
| Cc1ccc(-c2cc(=O)c3cc(C)c(C)c(C(=O)O)c3o2)cc1 | > 100 µM |  | > 100 µM | > 100 µM | > 100 µM | > 100 | > 100 µM | > 100 | > 100 µM |  |  |  |  |  |  |  |  |  |  |  |
| COc1ccc(OC)c(NCC#N)c1 | > 100 µM | > 100 µM | > 100 µM | > 100 µM | > 100 µM | > 100 | > 100 µM | > 100 | > 100 µM |  |  |  |  |  |  |  |  |  |  |  |
| COc1cc(C=O)c(-c2cc3c(cc2C2(C)OCCS2)OCO3)c(OC)c1OC (configuration not stated) | > 205 µM | 82.1 µM | 23.6 µM | 37.7 µM | > 160 µM | 28.2 | 90.8 µM | 92.9 | 26 µM |  |  |  |  |  |  |  |  |  |  |  |
| Cc1ccc(C(=O)N2c3ccccc3N(C)n3cccc3C2CC(=O)O)cc1 (configuration not stated) | > 100 µM | > 100 µM | > 100 µM | > 100 µM | > 100 µM |  | > 100 µM | > 100 | > 100 µM |  |  |  |  |  |  |  |  |  |  |  |
| CCOC(=O)[C@H]1CSC[C@@H](C(=O)OC)N1 | > 100 µM | > 100 µM | > 100 µM | > 100 µM | > 100 µM | > 100 | > 100 µM | > 100 | > 100 µM |  |  |  |  |  |  |  |  |  |  |  |
| O=C(O)C(C(=O)C(=O)C(C(=O)O)c1ccc(Cl)cc1)c1ccc(Cl)cc1 (configuration not stated) | 12.3 µM | 6.82 µM | 15.7 µM | 8.79 µM | 10 µM | 12.1 | 10.4 µM | 5.6 | 15.7 µM |  |  |  |  |  |  |  |  |  |  |  |
| N#Cc1ccc(C2C3=C(CCCC3=O)OC3=C2C(=O)c2ccccc2C3=O)cc1 (configuration not stated) |  | 1.27 µM | 3.76 µM | 1.69 µM | > 100 µM | 2.11 | 3.05 µM | 5.03 | 3.3 µM | 0.259 | 1.87 | 0.343 | 0.951 | 0.48 | 1.55 | 0.664 | 2.65 | 1.25 | 1.82 |  |
| CCCCCCCC(=O)OCC1OC(n2cc(F)c(=O)[nH]c2=O)C(NC(=O)OCc2ccccc2)C(O)C1O (configuration not stated) | > 100 µM | > 100 µM | > 100 µM | > 100 µM | > 100 µM | > 100 | > 100 µM | > 100 | > 100 µM |  |  |  |  |  |  |  |  |  |  |  |
| O=C1c2cc(-c3ccccc3)ccc2-c2c1c1ccc([N+](=O)[O-])cc1c(=O)n2CCCBr | > 50 µM |  | > 50 µM | > 50 µM | 0.6 µM | > 50 | > 43.4 µM | > 50 | > 50 µM |  | > 31.7 | > 50 | 0.16 | > 50 |  | > 46.4 | > 50 | > 50 | > 50 | 17.5 |
| O=c1cc(-c2ccccc2)[nH]c2c(Cl)cccc12 | > 100 µM | > 100 µM | > 100 µM | > 100 µM | > 100 µM | > 100 | > 100 µM | > 100 | > 100 µM |  |  |  |  |  |  |  |  |  |  |  |
| COc1ccc2c(c1)CCc1[nH]nc(-c3cc(OC)c(OC)c(OC)c3)c1-2 |  |  | 11.5 µM | 11.8 µM | > 100 µM | 1.16 | 33.9 µM | 3.53 | 21.7 µM |  | < 0.01 | < 0.01 | < 0.01 | < 0.01 | < 0.01 | < 0.01 | 12.9 | < 0.01 | 1.62 |  |
| CC(=O)OC(C)(C)/C=C/C(=O)[C@](C)(O)[C@H]1[C@H](O)C[C@@]2(C)[C@@H]3CC=C4[C@@H](C[C@H](O)C(=O)C4(C)C)[C@]3(CO)C(=O)C[C@]12C | 0.318 µM and 0.512 µM | 0.922 µM and 1.33 µM | 0.889 µM and 0.475 µM | 0.492 µM and 0.455 µM | 0.96 µM and 2.62 µM | 10 | 0.936 µM and 4.69 µM | 14.7 | 0.697 µM and 0.254 µM | 0.3 | 0.2 | 0.0999 | 0.0959 | 0.236 | 0.0838 |  |  | 0.621 | 0.034 | 0.251 |
| C/C(CC(=O)Nc1ccc(Cl)cc1)=N\NC(=O)C[n+]1ccccc1 | > 100 µM | > 100 µM | > 100 µM | > 100 µM | > 100 µM | > 100 | > 100 µM | > 100 | > 100 µM |  |  |  |  |  |  |  |  |  |  |  |
| NC(CC(=O)Nc1ccc(Cl)cc1)=Nc1ccccc1 | > 100 µM | > 100 µM | > 100 µM | > 100 µM |  | > 100 | > 100 µM | > 100 | > 100 µM |  |  |  |  |  |  |  |  |  |  |  |
| Cn1c(/C=C(\C#N)c2cccc(C(F)(F)F)c2)nc2c(N3CCOCC3)nc(Cl)nc21 | 3.14 µM | 2.54 µM | 2.82 µM | 1.36 µM | 0.75 µM | 0.398 | 2.79 µM | 3.18 | 2.86 µM | 0.486 | 1.43 | 0.321 | 0.23 | 0.178 | 1.39 |  |  | 1.49 | 1.48 | 1.72 |
